Marks after values point to notes of the source that are not given here.

In series [1] the test system is New Zealand White rabbits. As to the kind of experiment: Chemical analysis of blood of cholesterol-fed rabbits (Experimental Example 7, Step 3). Particulars: 8 weeks. On the procedure: Healthy male New Zealand White rabbits, each weighing about 2.0 to 2.3 kg, were supplied from Yeonam Horticulture and Animal Husbandry College (Korea) and raised under a breeding environment of temperature 20±2° C., relative humidity 55±10%, and photoperiod 12L/12D. […] The rabbits were fed for 8 weeks while being allowed free access to the diets and water.

Another series deals with T1, HMG-CoA reductase (Rattus norvegicus, UniProt P51639).
T1 construct: the supernatant was ultracentrifuged (100,000×g for 60 minutes) to obtain microsomal precipitates; from tissue; host or cells: liver microsomes of treated rats
T1 sequence (P51639 1-887): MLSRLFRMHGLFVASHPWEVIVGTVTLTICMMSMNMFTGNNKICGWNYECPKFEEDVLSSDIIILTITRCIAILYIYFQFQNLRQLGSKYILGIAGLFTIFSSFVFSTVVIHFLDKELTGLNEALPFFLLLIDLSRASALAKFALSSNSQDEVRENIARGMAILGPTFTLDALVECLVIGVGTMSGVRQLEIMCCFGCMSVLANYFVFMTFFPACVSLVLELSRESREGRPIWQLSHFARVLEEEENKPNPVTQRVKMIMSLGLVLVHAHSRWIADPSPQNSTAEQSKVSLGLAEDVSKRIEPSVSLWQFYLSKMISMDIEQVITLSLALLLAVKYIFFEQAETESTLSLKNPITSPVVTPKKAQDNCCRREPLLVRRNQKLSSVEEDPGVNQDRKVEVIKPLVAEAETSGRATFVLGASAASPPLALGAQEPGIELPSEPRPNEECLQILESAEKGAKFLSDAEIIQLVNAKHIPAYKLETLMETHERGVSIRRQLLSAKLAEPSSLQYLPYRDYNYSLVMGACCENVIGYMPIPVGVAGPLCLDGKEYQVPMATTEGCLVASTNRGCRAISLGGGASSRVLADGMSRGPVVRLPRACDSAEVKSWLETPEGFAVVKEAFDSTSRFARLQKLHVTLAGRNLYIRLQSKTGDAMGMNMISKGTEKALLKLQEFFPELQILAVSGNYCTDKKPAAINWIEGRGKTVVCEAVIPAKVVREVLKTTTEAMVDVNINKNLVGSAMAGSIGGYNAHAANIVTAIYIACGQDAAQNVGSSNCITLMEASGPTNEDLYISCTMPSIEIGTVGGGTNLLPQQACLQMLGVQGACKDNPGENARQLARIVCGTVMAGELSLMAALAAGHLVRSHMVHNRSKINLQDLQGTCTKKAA
Put plainly: HMG-CoA reductase activity in liver microsomes of treated rats (Experimental Example 6, Step 4). The settings on record: for HMG-CoA reductase: activity in liver microsomes of rats fed 6 weeks, CoA-SH by absorbance at 412 nm, average; for Inhibition of HMG-CoA reductase activity: liver microsomes of rats fed 6 weeks, relative to control group. Format: in vivo. Further details: HMG-CoA reductase: unit not given here. On the procedure: In order to measure the activity of HMG-CoA reductase, the method described by Hulcher et al. (J. Lipid Res., 14, 625-641 (1973)) was employed after some modification. In this method, the concentration of the coenzyme-A (CoA-SH), which is produced when HMG-CoA is reduced to a mevalonate salt by the action of HMG-CoA reductase, is determined by spectroscopy and the activity of HMG-CoA reductase is calculated therefrom.
3 g of liver tissue taken from each sacrificed rat of Step 2 was washed successively with 100 ml of a cold Saline (0.15M NaCl) and 100 ml of a cold buffer solution A (0.1M triethanolamine, HCl/0.2M EDTA/2 mM dithiothreitol). The cold buffer solution A was added to the liver tissue in an amount of 2 ml per 1 g of the liver tissue and the mixture was homogenized with a homogenizer. The homogenate was centrifuged (15,000×g for 15 minutes), and then, the supernatant was ultracentrifuged (100,000×g for 60 minutes) to obtain microsomal precipitates. The precipitates thus obtained were washed with 2 mL of a cold buffer solution A and ultracentrifuged (100,000×g for 60 minutes) to obtain precipitates. The precipitates thus obtained were washed with a 1 mL of cold buffer solution A and kept in a 1.5 mL tube at −70° C.
The reaction substrates used in the measurement of HMG-CoA reductase activity were as follows:
i) buffer solution B: 0.1M triethanolamine, HCl/0.02M EDTA (pH7.4),
ii) HMG-CoA solution: 150 mmoles/culture medium, and
iii) NADPH solution: 2 mmoles/culture medium.
The suspension (microsome) prepared in the above was mixed with the reaction substrate and the resulting mixture was placed in a centrifugation tube and reacted at 37° C. for 30 minutes. The reaction mixture was treated with 20 μl of 0.1M sodium arsenite and allowed to stand for 1 minute. Then, the mixture was reacted with 100 μl of citrate buffer solution (2M citrate/3% sodium tungstate, pH 3.5) at 37° C. for 10 minutes followed by centrifugation (25,000×g for 15 minutes) to remove protein. 1 mL of the supernatant thus obtained was transferred into a tube with a cap and 0.2 mL of 2M tris-HCl solution (pH 10.6) and 0.1 ml of 2M tris-HCl solution (pH 8.0) were added thereto to adjust the pH of the reaction to 8.0. Then, the reaction was mixed with 20 μl of DTNB buffer solution (3mM DTNB/0.1M triethanolamine/0.2M EDTA, pH 7.4) and the absorbance of the mixture was determined at 412 nm to calculate the amount of CoA-SH (activity of HMG-COA reductase). The inhibition of HMG-CoA reductase activity of the control and treated groups were calculated based on the above results.

Series [2] deals with New Zealand White rabbits. Put plainly: Histological observation of the organs of treated rabbits (Experimental Example 7, Step 5). The settings on record: 8 weeks. Format: in vivo, rabbit. The text has this:
Tissues of the lung, myocardium, kidney and muscle taken from the rabbits treated with the phenolic acid derivatives (BN30063, BN30064, BN30067) were visually examined for pathological changes using a microscope.

Where [3] appears, read: 1% cholesterol diet, lovastatin 1 mg/kg, BN compounds 0.025%, average ± standard deviation.

Consider `COC(=O)C(CO)NC(=O)CCc1ccc(O)c(O)c1` (stereo not shown) [BN30063, 2-[3-(3,4-dihydroxyphenyl)propionylamino]-3-hydroxy propionic acid methyl ester], for which, in series [1] (setting [3]), the HDL is 81 ± 16 mg/dL and the TC is 1643 ± 194 mg/dL. Further, at HMG-CoA reductase, the HMG-CoA reductase is 196.11 and the “Inhibition of HMG-CoA reductase activity” value came to 20.09%. The “Pathological changes in lung, myocardium, kidney and muscle (microscope)” value (“Pathological changes in lung, myocardium” below) in series [2] is recorded as “no pathogenic abnormality was found”.
As to `CC(C)CC(NC(=O)CCc1ccc(O)c(O)c1)C(=O)O` (stereo not shown) [BN30064, 2-[3-(3,4-dihydroxyphenyl)propionylamino]-4-methyl pentanoic acid], in series [1] (setting [3]), the HDL worked out at 85 ± 15 mg/dL and the TC is 1596 ± 191^b mg/dl. For the same compound, in series [1], the “HDL compared to the control group” value is given as “significantly increased value” and the “Total cholesterol compared to the control group” value was “significantly low”. This compound also yielded an HMG-CoA reductase at HMG-CoA reductase of 124.74. In addition, in series [2], the “Pathological changes in lung, myocardium” value was “no pathogenic abnormality was found”.
Consider `O=C(O)CC(NC(=O)CCc1ccc(O)c(O)c1)C(=O)O` (stereo not shown) [BN30067, 2-[3-(3,4-dihydroxyphenyl)propionylamino]-succinic acid], for which, in series [1] (setting [3]), the HDL turned out to be 81 ± 14 mg/dL and the TC was 1710 ± 251 mg/dL. Further, the HMG-CoA reductase at HMG-CoA reductase was found to be 136.15. Moreover, the “Pathological changes in lung, myocardium” value in series [2] was “no pathogenic abnormality was found”.
For the compound `CC[C@H](C)C(=O)O[C@H]1C[C@@H](C)C=C2C=C[C@H](C)[C@H](CC[C@@H]3C[C@@H](O)CC(=O)O3)[C@H]21` [Lovastatin, reference compound], in series [1] (setting [3]), the GOT is listed as 105 ± 47^b IU/L, the GPT is 47 ± 18 IU/L, the HDL was determined as 70 ± 6 mg/dL and the TC worked out at 1739 ± 86 mg/dL. In addition, the “GOT and GPT compared among the test groups” value in series [1] (associated with hepatotoxicosis) was “highest GOT and GPT values among the test groups”. On HMG-CoA reductase, the HMG-CoA reductase is 173.25 and the “Inhibition of HMG-CoA reductase activity” value came out at 29.40%.

Values taken from patent US7223793B2, “Phenolic acid derivatives and composition for preventing or treating blood lipid level-related diseases comprising the same” (Bionutrigen Co., Ltd., priority 2001, dated 2007).
